Results reported in ChEMBL document CHEMBL4673282, “Identification of a New Heterocyclic Scaffold for Inhibitors of the Polo-Box Domain of Polo-like Kinase 1” (J Med Chem, 2020).
Values after ≈ are worked out from the molar mass of the structure shown.

Experiments:
in vitro = conditions: PAMPA
Description: Permeability of the compound by PAMPA

[1] = Half life in rat liver microsomes at 1 uM measured up to 60 mins in presence of NADPH generating system; conditions: 1 h
[2] = Aqueous solubility of compound; type: physicochemical; conditions: buffer

Q: Which Papp (in vitro) does the source give for `CNC(=S)N1CN(CCc2ccccc2)C(=O)c2cc(F)ccc21` here?
A: 161 ×10⁻⁶ cm/s

Q: And the t1/2 [1]?
A: 2.2 min

Q: And the solubility [2]?
A: 4.5 µg/mL (≈ 13.1 µM)

Q: Which results are given for `O=C(O)CCC(=O)NCCCn1c(=O)c2cc(F)ccc2n2c(=S)[nH]nc12`?
A: Papp (in vitro): < 1 ×10⁻⁶ cm/s; t1/2 [1]: > 30 min; solubility [2]: > 58 µg/mL

Q: Which Papp (in vitro) does the source give for `CN(C)CCn1c(=O)c2cc(F)ccc2n2c(=S)[nH]nc12` here?
A: 117 ×10⁻⁶ cm/s

Q: And the t1/2 [1]?
A: > 30 min

Q: And the solubility [2]?
A: > 45 µg/mL

Q: What does the source list for `O=c1c2cc(F)ccc2n2c(=S)[nH]nc2n1CCN1CCCCC1`?
A: Papp (in vitro): 358 ×10⁻⁶ cm/s; t1/2 [1]: > 30 min; solubility [2]: 2.4 µg/mL (≈ 6.91 µM)

Q: Which Papp (in vitro) does the source give for `O=c1c2cc(Cl)ccc2n2c(=S)[nH]nc2n1CCC(F)(F)F` here?
A: 257 ×10⁻⁶ cm/s

Q: And the t1/2 [1]?
A: > 30 min

Q: And the solubility [2]?
A: 5.1 µg/mL (≈ 14.6 µM)

Q: Which results are given for `O=C(NCCCn1c(=O)c2cc(F)ccc2n2c(=S)[nH]nc12)c1ccccc1`?
A: Papp (in vitro): 267 ×10⁻⁶ cm/s; t1/2 [1]: > 30 min; solubility [2]: 21.9 µg/mL (≈ 55.1 µM)

Q: Which Papp (in vitro) does the source give for `CC(CN(C)C)n1c(=O)c2cc(F)ccc2n2c(=S)[nH]nc12` (racemic) here?
A: 186 ×10⁻⁶ cm/s

Q: What about the t1/2 [1] of the same compound?
A: > 30 min

Q: What about the solubility [2] of the same compound?
A: > 47 µg/mL

Q: For `NS(=O)(=O)CCCC(=O)NCCCn1c(=O)c2cc(F)ccc2n2c(=S)[nH]nc12`, which Papp (in vitro) is on record?
A: 3 ×10⁻⁶ cm/s

Q: And the t1/2 [1]?
A: > 30 min

Q: And the solubility [2]?
A: 42.4 µg/mL (≈ 95.8 µM)

Q: With `O=c1c2ccncc2n2c(=S)[nH]nc2n1CCc1ccccc1` as the compound, how does the Papp (in vitro) read?
A: 202 ×10⁻⁶ cm/s

Q: What about the t1/2 [1] of the same compound?
A: 15.8 min

Q: And the solubility [2]?
A: 17.3 µg/mL (≈ 53.5 µM)

Q: Which Papp (in vitro) does the source give for `O=c1c2cc(F)ccc2n2c(=S)[nH]nc2n1CCCO` here?
A: 222 ×10⁻⁶ cm/s

Q: And the t1/2 [1]?
A: > 30 min

Q: And the solubility [2]?
A: > 43 µg/mL

Q: With `Nc1nnc2n(CCc3ccccc3)c(=O)c3cc(F)ccc3n12` as the compound, how does the Papp (in vitro) read?
A: 885 ×10⁻⁶ cm/s

Q: And the t1/2 [1]?
A: 29.4 min

Q: And the solubility [2]?
A: 2.2 µg/mL (≈ 6.8 µM)

Q: What does the source list for `O=c1c2cc(F)ccc2n2c(=S)[nH]nc2n1CCC(F)(F)F`?
A: Papp (in vitro): 117 ×10⁻⁶ cm/s; t1/2 [1]: > 30 min; solubility [2]: 17.3 µg/mL (≈ 52.1 µM)

Q: Which results are given for `O=c1c2cccc(F)c2n2c(=S)[nH]nc2n1CCc1ccccc1`?
A: Papp (in vitro): 141 ×10⁻⁶ cm/s; t1/2 [1]: > 30 min; solubility [2]: 3.4 µg/mL (≈ 9.99 µM)

Q: Which Papp (in vitro) does the source give for `CC(C)(C)OC(=O)NCCCCCC(=O)NCCCn1c(=O)c2cc(F)ccc2n2c(=S)[nH]nc12` here?
A: 405 ×10⁻⁶ cm/s

Q: What about the t1/2 [1] of the same compound?
A: > 30 min

Q: And the solubility [2]?
A: > 75 µg/mL

Q: With `O=c1c2cc(F)ccc2n2c(=S)[nH]nc2n1Cc1ccccc1` as the compound, how does the Papp (in vitro) read?
A: 841 ×10⁻⁶ cm/s

Q: And the t1/2 [1]?
A: > 30 min

Q: And the solubility [2]?
A: 8.3 µg/mL (≈ 25.4 µM)

Q: Which Papp (in vitro) does the source give for `O=C(NCCCn1c(=O)c2cc(F)ccc2n2c(=S)[nH]nc12)C1CCCC1` here?
A: 155 ×10⁻⁶ cm/s

Q: And the t1/2 [1]?
A: > 30 min

Q: What about the solubility [2] of the same compound?
A: > 58 µg/mL

Q: With `O=c1c2cc(Br)ccc2n2c(=S)[nH]nc2n1CCc1ccccc1` as the compound, how does the Papp (in vitro) read?
A: 162 ×10⁻⁶ cm/s

Q: What about the t1/2 [1] of the same compound?
A: > 30 min

Q: And the solubility [2]?
A: < 1 µg/mL

Q: For `COc1cccc(CC(=O)NCCCn2c(=O)c3cc(F)ccc3n3c(=S)[nH]nc23)c1`, which Papp (in vitro) is on record?
A: 300 ×10⁻⁶ cm/s

Q: And the t1/2 [1]?
A: 20.1 min

Q: And the solubility ([2]; read-out: solubility)?
A: > 65 µg/mL

Q: Which results are given for `O=c1c2cc(F)ccc2n2c(=S)[nH]nc2n1CCc1ccccn1`?
A: Papp (in vitro): 355 ×10⁻⁶ cm/s; t1/2 [1]: > 30 min; solubility [2]: 13 µg/mL (≈ 38.1 µM)

Q: Which results are given for `O=c1c2ccccc2n2c(=S)[nH]nc2n1CCC(F)(F)F`?
A: Papp (in vitro): 82 ×10⁻⁶ cm/s; t1/2 [1]: > 30 min; solubility [2]: 23.3 µg/mL (≈ 74.1 µM)

Q: For `O=c1c2cc(F)ccc2n2c(=S)[nH]nc2n1CCN1CCC(F)(F)CC1`, which Papp (in vitro) is on record?
A: 234 ×10⁻⁶ cm/s

Q: What about the t1/2 [1] of the same compound?
A: > 30 min

Q: And the solubility [2]?
A: 20.2 µg/mL (≈ 52.7 µM)

Q: With `O=C(CN1CCOCC1)NCCCn1c(=O)c2cc(F)ccc2n2c(=S)[nH]nc12` as the compound, how does the Papp (in vitro) read?
A: < 1 ×10⁻⁶ cm/s

Q: And the t1/2 [1]?
A: > 30 min

Q: And the solubility [2]?
A: > 62 µg/mL

Q: Which Papp (in vitro) does the source give for `O=c1c2cc(F)ccc2n2cnnc2n1CCc1ccccc1` here?
A: 924 ×10⁻⁶ cm/s

Q: What about the t1/2 [1] of the same compound?
A: 11.8 min

Q: And the solubility [2]?
A: 14.8 µg/mL (≈ 48 µM)

Q: With `CN1CCN(CC(=O)NCCCn2c(=O)c3cc(F)ccc3n3c(=S)[nH]nc23)CC1` as the compound, how does the Papp (in vitro) read?
A: < 1 ×10⁻⁶ cm/s

Q: What about the t1/2 [1] of the same compound?
A: > 30 min

Q: What about the solubility [2] of the same compound?
A: > 64 µg/mL

Q: What does the source list for `CN(C)c1ccc2c(c1)c(=O)n(CCc1ccccc1)c1n[nH]c(=S)n21`?
A: Papp (in vitro): 356 ×10⁻⁶ cm/s; t1/2 [1]: 13.3 min; solubility [2]: < 1 µg/mL
